Here are results for one compound from article PMC11423305, “Structure-Based Design of CBP/EP300 Degraders: When Cooperativity Overcomes Affinity” (JACS Au, 2024).

Read-outs that look alike come from different tables or passages of the source.

For one test, the system named is MM1S cells. The test is described as follows: Cell viability (resazurin), MM1S. In kind it is cell-based. The settings on record: Homo sapiens, MM1.S, 72 h, 3 days. Here is the method: The primer sequences used were:
Gene Gene ID Forward Primer (5’-3’) Reverse primer (5’-3’)
myc NM_001354870.1 GTAGTGGAAAACCAGCC […]
crebbp NM_004380.3 TGTCACAGGGACAGGTGC […]
Cells were plated onto 96 well plates at the following densities in 90 μl volume: 3x104
LP1 cells/well or 5x10^3 LNCaP cells/well both plated same day as treatment, or 2x104
MM1S cells/well or 1.5x10^3 SH-SY5Y cells/well both plated day prior to treatment.
Compounds were added in 10 μl to give the stated concentrations with a final
concentration of 0.1 % DMSO. Following 3 days of compound treatment, resazurin
(Acros Organics, 189900010) was added at a f inal concentration of 86 μM and incubated
for the following times: MM1S 5 h, LP1 3 h, LNCaP 1 h 30 min, SH-SY5Y 6 h.
Fluorescence (excitation = 560 nm, emission = 590 nm) was measured using a
spectraMax M5 microplate reader (Molecular Devices) and cell viability was calculated
relative to DMSO treated cells on the same plate. Data was fitted using a four -parameter
dose-response curve in GraphPad Prism v. 9.5.1, where the top is fixed at 100 %. GI50
values were calculated as the concentration required to inhibit cell viability to 50 %
relative to DMSO treated cells after 3 days.
Sample digestion and clean up: Treated cells were washed in PBS and cell pellets
were then lysed in 4 % SDS/Tris-HCl, treated with High Intensity Focused Ultrasound […]
(Alamar Blue is a resazurin reagent that responds to reducing activity.)

A further test concerns the target CRBN and CBP-BRD (Homo sapiens, UniProt Q92793+Q96SW2). The test is described as follows: FluoPPI cellular ternary complex formation, CBP-BRD. In kind it is cell-based. The settings on record: U2OS cells, 6 h.
The next test addresses CBP-BRD (Homo sapiens, UniProt Q92793). Description: TR-FRET competition with acetylated peptide binding to CBP-BRD, with and without CRBN (cooperativity). More on the design: GST-CBP (human, residues 1081-1197); made in house; host or cells: Rosetta (DE3) cells (E. coli). In general terms: Time-resolved FRET reads energy transfer from a long-lived donor to a nearby acceptor.

In a further test the test system is CBP/EP300. Description: Western blot of CBP and EP300 levels in various cell lines. In kind it is cell-based. The settings on record: 16 h, 1 μM. Background: In western blotting, separated proteins are transferred to a membrane and probed.

Sequence of CRBN and CBP-BRD (Q92793 1081-1211): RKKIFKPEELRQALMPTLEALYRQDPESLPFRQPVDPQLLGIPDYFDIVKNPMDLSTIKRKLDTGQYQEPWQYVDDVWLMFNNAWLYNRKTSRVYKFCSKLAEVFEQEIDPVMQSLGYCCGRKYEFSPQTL
Sequence of CRBN and CBP-BRD (Q96SW2 whole entry, the tested form may be a part): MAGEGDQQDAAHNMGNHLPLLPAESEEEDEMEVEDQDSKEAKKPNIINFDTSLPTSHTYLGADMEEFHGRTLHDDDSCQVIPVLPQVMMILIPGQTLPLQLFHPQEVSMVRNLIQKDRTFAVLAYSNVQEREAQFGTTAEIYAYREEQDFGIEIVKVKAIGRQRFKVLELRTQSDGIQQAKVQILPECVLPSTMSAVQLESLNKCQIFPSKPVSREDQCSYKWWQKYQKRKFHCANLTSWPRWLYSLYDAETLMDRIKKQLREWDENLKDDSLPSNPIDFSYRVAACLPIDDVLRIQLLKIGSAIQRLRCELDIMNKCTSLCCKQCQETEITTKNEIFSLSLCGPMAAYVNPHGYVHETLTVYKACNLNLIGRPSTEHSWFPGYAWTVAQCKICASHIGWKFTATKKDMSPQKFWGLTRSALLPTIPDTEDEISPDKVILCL

For orientation: GI50 means the concentration at which growth is held to half of that of the control. The term IC50 denotes the concentration at which inhibition is half-maximal. `Cc1cc2c(NC(=O)c3cc(NC(=O)CCCCCCCCCCNc4cccc5c4C(=O)N(C4CCC(=O)NC4=O)C5=O)cc(-c4ccn(C)n4)c3)cccc2nn1` (centres unmarked) [dCE-2] gave a concentration for 50% growth inhibition (GI50) in the test with MM1S cells of 35 nM. The “ternary complex formation in cells with CRBN and CBP-BRD” value on CRBN and CBP-BRD is reported as “good ternary complex formation”. The IC50 was determined as 150 nM at CBP-BRD (absence of CRBN, read-out: CBP-BRD IC50 (binary, IC50[control])) and 45 nM on CBP-BRD (presence of high concentrations of CRBN C-terminal thalidomide binding domain, read-out: ternary IC50 (IC50[CRBN])). In addition, the “CBP/EP300 degradation in MM1S, LNCaP and SH-SY5Y cells” value in the test on CBP/EP300 was “active degrader”.
